Experimental data as given in patent US4906614A, “Method of treating posttraumatic nervous injuries with dipeptide derivatives” (Gruenenthal GmbH, priority 1985, dated 1990).

Experiments:
[1] = tested on: brain stem compression in cats; conditions: cited from earlier work
[2] = tested on: experimental spinal cord injury; conditions: animal experiments; treatment during the first 24 hours following the trauma; cited from earlier work
[3] = tested on: Cats After Traumatic Spinal Cord Injury; test: Neurologic recovery in cats after traumatic spinal cord injury (C-7 weight-drop); type: in vivo, cat; design: key to total functional score (forelimb + hindlimb scores): sum of forelimb + hindlimb scores, each 0 = no movement to 5 = normal; conditions: for neurologic and motoric function compared with saline: after 6 weeks
Description: Cats anesthetized with sodium pentobarbital were subjected under aseptic conditions to a laminectomy to expose the C-7 spinal segment. With the dura intact, the spinal cord was traumatized by dropping a 20 g weight a distance of 30 cm through a guide tube onto a 10 square-millimeter impact plate. Drugs were given intravenously as a bolus injection (0.5 ml) at 1 and 3 hours after injury. A group of 9 animals was treated with 0.2mg/kg of orotyl-L-histidyl-L-prolinamide dissolved in 0.5 ml of physiological saline. A second group of 7 animals was given 1 mg/kg L-pyro-2-aminoapidyl-L-nistidyl-thiazolidine-4-carboxamide (also dissolved in 0.5 ml of physiological saline), which compound is referred to hereinafter as "compound A" and which has been described in the literature as an active TRH-modification product and has also been compared with the aforementioned orotylL-histidyl-L-prolinamide (c.f. Metcalf in Thyrotropin Releasing Hormone, E. C. Griffiths et al., eds., Raven Press, New York, 1983, pp. 315-26). A control group of 11 animals was treated with 0.5 ml of physiological saline per animal.
Neurologic function was evaluated weekly for six weeks by a neurologist who was unaware of the treatment group and assessed according to a six-point ordinal scale as described by Faden et al. in Neurology, Vol. 33, pp. 673-678 (1983). Forelimb and hindlimb function were scored separately as follows: 0 =absence of voluntary movement; 1 =spontaneous movement but inability to support weight; 2=ability to support weight but unable to walk; 3=ability to walk but with marked spasticity and/or ataxia; 4=ability to run but with mild spasticity or ataxia; and 5=normal motor function. Forelimb and hindlimb scores were then added together to obtain a total functional score.

For `NC(=O)[C@@H]1CCCN1C(=O)[C@H](Cc1c[nH]cn1)NC(=O)[C@@H]1CCC(=O)N1` [TRH, L-pyroglutamyl-L-histidyl-L-prolinamide], the “effect on EEG alterations resulting from traumata of the brain” value [1] is listed as “dose-dependent positive effect” and the “recovery of the motoric function after experimental spinal cord injury” value [2] is listed as “significantly improves recovery of the motoric function”.
In the case of `NC(=O)[C@@H]1CCCN1C(=O)[C@H](Cc1c[nH]cn1)NC(=O)c1cc(=O)[nH]c(=O)[nH]1` [Compound of Invention, orotyl-L-histidyl-L-prolinamide], the “neurologic and motoric function compared with saline” value ([3]; 0.2 mg/kg i.v. at 1 and 3 hours after injury) is reported as “significantly improved”, the “total functional score (forelimb + hindlimb scores)” value (shortened to “total functional score”) ([3]; week 1 after injury, 0.2 mg/kg i.v. bolus at 1 and 3 hours after injury, n = 9) is reported as 6 and the “total functional score” value ([3]; week 2 after injury, 0.2 mg/kg i.v. bolus at 1 and 3 hours after injury, n = 9) is reported as 6. The “total functional score” value ([3]; week 3 after injury, 0.2 mg/kg i.v. bolus at 1 and 3 hours after injury, n = 9) was 6, the “total functional score” value ([3]; week 4 after injury, 0.2 mg/kg i.v. bolus at 1 and 3 hours after injury, n = 9) was 7 and the “total functional score” value ([3]; week 5 after injury, 0.2 mg/kg i.v. bolus at 1 and 3 hours after injury, n = 9) was 8. For the same molecule, the “total functional score” value ([3]; week 6 after injury, 0.2 mg/kg i.v. bolus at 1 and 3 hours after injury, n = 9) was 8.
For `NC(=O)C1CSCN1C(=O)[C@H](Cc1c[nH]cn1)NC(=O)[C@@H]1CCCC(=O)N1` (stereo partly drawn) [A, L-pyro-2-aminoapidyl-L-nistidyl-thiazolidine-4-carboxamide], the “neurologic and motoric function compared with saline” value ([3]; 1 mg/kg i.v. at 1 and 3 hours after injury) was “did not differ significantly from those of saline”, the “total functional score” value ([3]; week 1 after injury, 1 mg/kg i.v. bolus at 1 and 3 hours after injury, n = 7) was 4 and the “total functional score” value ([3]; week 2 after injury, 1 mg/kg i.v. bolus at 1 and 3 hours after injury, n = 7) was 5. The “total functional score” value ([3]; week 3 after injury, 1 mg/kg i.v. bolus at 1 and 3 hours after injury, n = 7) was 5, the “total functional score” value ([3]; week 4 after injury, 1 mg/kg i.v. bolus at 1 and 3 hours after injury, n = 7) was 5 and the “total functional score” value ([3]; week 5 after injury, 1 mg/kg i.v. bolus at 1 and 3 hours after injury, n = 7) was 6. The “total functional score” value ([3]; week 6 after injury, 1 mg/kg i.v. bolus at 1 and 3 hours after injury, n = 7) was 6.
